Data as given in US9199028B2, “Use of entrained neutrophils to treat metastatic and micrometastatic disease in at risk patients” (MEMORIAL SLOAN-KETTERING CANCER CENTER, priority 2010, dated 2015).
pIC50: −log10 of the molar value. “Also recorded” adds a separate entry of the source.

Assays:
4T1 cells = assay: In vitro killing assay: TENs co-cultured with 4T1 cells in the presence of inhibitors or TGF-β; type: cell-based, mouse; conditions: TENs + 4T1 cells overnight; Apocynin 100 μM, Catalase 1,000 u/ml, Superoxide Dismutase 1,000 u/ml, Taurine 50 mM
Text: Antibodies used for immunohistochemistry—MMP9, F4/80 and CCR2 (all from AbCam), Myeloperoxidase (Dako), Ly-6G and Cd11b (both from BD), and Cleaved Caspase 3 (Cell signalling). Antibodies used for western blotting—Actin (Sigma), CCL2 (AbCam) and CCL5 (R&D) p-SMAD2 (cell signalling). Antibodies used for FACS analysis FITC-Ly-6G, FITC-Cd11b, FITC-F4/80, FITC-Cd34 and FITC-c-Kit (all from BD) and VEGFR1-AP (R&D). Neutrophil Depletion Neutrophil depletion was achieved using daily IP injections of 12.5 μg Rat anti-Gr-1 antibody (BD) or Rat anti-Ly-6G antibody (BD) starting on day 3 post tumour engraftment. Starting on day 14, neutrophil depleting antibodies were administered twice daily. Control mice were injected with […] Rat isotype control (BD). Neutrophil depletion was monitored by manual blood differentials and FACS analysis. Flow Cytometry Peripheral blood was collected into EDTA-coated tubes, washed and resuspended in FACS buffer solution (PBS, 2% heat-inactivated FCS, 5 mM EDTA, and 0.02% sodium azide). The samples were blocked with […] and then incubated with fluorophore-conjugated antibodies. Erythrocytes were then lysed with FACS lysing solution (BD Biosciences) and the cell suspensions were analyzed on a FACSCalibur (BD Biosciences). Colony Formation Assay Female nude mice were orthotopically injected with 5×10^6 puromicin resistant 4T1 cells. On days 7 and 14 post tumour engraftment the mice were sacrificed and perfused with PBS. The lungs and livers were removed, washed with PBS and dissociated with Collagenase A (Roche). The single cell suspension was then plated onto puromicin containing media and selected for 14 day. Colonies were stained with Methylene-Blue and counted manually. Mouse Neutrophil Purification Whole blood was collected by cardiac puncture using heparinized (Sigma) syringe. The blood was diluted with 5 volumes of PBS containing 0.5% BSA and subjected to a discontinuous Histopaque (Sigma) gradient (1.077 and 1.119). Neutrophils were collected from the 1.077-1.119 interface, lymphocytes and monocytes collected from the plasma-1.077 interface. RBCs were eliminated by hypotonic lysis. The cells were washed twice with PBS-BSA and re-suspended in OptiMEM (Invitrogen) 0.5% FBS in a final concentration of 2×10^6 cells/ml. Neutrophil purity and viability were determined visually and were consistently >98%. Human Neutrophil Purification As part of a Memorial Sloan-Kettering Cancer Center institutionally approved protocol, blood samples (˜10 cc) were collected from healthy volunteers or from patients who were already having blood drawn for pre-surgical testing. Patients were consented accordingly as part of the approved protocol. […] Patients had either mastectomies or lumpectomies planned and had blood drawn prior to definitive surgical removal of their primary tumor or chemotherapy. Blood samples were transferred to the lab for analysis no more than 1 hour post-blood draw. Heparinzed blood (20 U/ml final) was mixed with an equal volume of Dextran 500 (3% in saline) and incubated 30 minutes at room temperature. The leukocyte-rich supernatant was layered on top of histopaque 1077 (Sigma) and centrifuged. Neutrophils, collected in the pellet fraction, were resuspended in 10 ml 0.2% NaCl for 30 seconds to remove contaminating erythrocytes. Isotonicity was restored by the addition of 10 ml 1.6% NaCl. Neutrophils were than washed three times in Hanks's balanced salt solution and resuspended in RPMI+FCS2%. In vitro Killing Assay Luciferase labelled cells (5,000/well) were plated on a 96-well, flat bottom white polystyrene tissue culture plate in OptiMEM 0.5% FBS (mouse neutrophils) or RPMI 2% FBS (human neutrophils). 4 hours later, purified neutrophils (100,000/well for mouse neutrophils and 5000 for human neutrophils) were added to the plated tumour cells and co-cultured overnight. […]

4T1 tumour-bearing mice = assay: In vivo administration of Apocynin, spontaneous metastasis assay; design: species or system mouse; conditions: Apocynin 2.4 g/liter in drinking water from 24 hours after orthotopic 4T1 injection, vs control
Text: 4T1, B16-F10, and Lewis Lung Carcinoma (LLC) murine tumour cell lines as well as the human MCF7 and MDA-MB-231 mammary tumour cell lines were purchased from the ATCC. The human 4175 (LM2) cell line was described in Minn, et al., Nature 436:518-524 (2005), herein incorporated by reference). CCL2 and CCL5 knockdown 4T1 cells were generated by lentiviral transduction with CCL2 and CCL5 specific shRNAs from the SKI shRNA lentiviral collection. 4T1, MCF7 and 4175 were orthotopically injected into the mammary fat pad. B16-F10 and LLC cells were injected intradermally. Spontaneous Metastasis Assay 4T1 cells were transduced with pLVX based lentiviral particles encoding for firefly luciferase. Balb/C or nude female mice were orthotopically injected with 5×10^6 luciferase labelled cells. Metastatic progression was monitored using IVIS200 imaging system to measure lung specific luciferase activity starting on day 3 post tumour engraftment. Analysis of metastases size distribution and number was done histologically. Tissue Injury Female FVB mice were anesthetized and shaved at the wounding site. An area of skin (4 mm in diameter) area of skin was surgically removed from the dorsal region. […]
Mice were orthotopically injected with 5×10^6 luciferase labelled 4T1 cells. […] Formation of lung metastases was monitored using the IVIS-200 optical in vivo imaging system. […]

[1] = TGFbeta inhibitor, Tocris; cited from earlier work

| SMILES | neutrophil (TEN) mediated tumour-cell killing in the presence of inhibitor (4T1 cells) | spontaneous lung metastasis (lung specific luciferase activity) (4T1 tumour-bearing mice) | pIC50 [1] |
| --- | --- | --- | --- |
| COc1cc(C(C)=O)ccc1O [Apocynin] | completely inhibits the neutrophil mediated tumour-cell killing | enhanced; also recorded: enhances metastasis | – |
| NC(=O)c1ccc(-c2nc(-c3ccc4c(c3)OCO4)c(-c3ccccn3)[nH]2)cc1 [SB431542] | – | – | 7.03 |
